Results: patent US7550459B2, “Tetrahydroquinoline analogues as muscarinic agonists” (Acadia Pharmaceuticals, Inc., priority 2001, dated 2009)
Where two headings read alike, the source gives them in different places.

Experiments:
Format in all cases: cell-based
[1] = target: T1, M1 muscarinic receptor (Homo sapiens, UniProt P11229); test: Receptor Selection and Amplification (R-SAT) assay, cloned M1 receptor; parameters: M1 Eff: scale not given here; conditions: for Emax: read-out: m1 % Efficacy
T1 construct: expressed in transfected cells
T1 sequence (P11229 1-460): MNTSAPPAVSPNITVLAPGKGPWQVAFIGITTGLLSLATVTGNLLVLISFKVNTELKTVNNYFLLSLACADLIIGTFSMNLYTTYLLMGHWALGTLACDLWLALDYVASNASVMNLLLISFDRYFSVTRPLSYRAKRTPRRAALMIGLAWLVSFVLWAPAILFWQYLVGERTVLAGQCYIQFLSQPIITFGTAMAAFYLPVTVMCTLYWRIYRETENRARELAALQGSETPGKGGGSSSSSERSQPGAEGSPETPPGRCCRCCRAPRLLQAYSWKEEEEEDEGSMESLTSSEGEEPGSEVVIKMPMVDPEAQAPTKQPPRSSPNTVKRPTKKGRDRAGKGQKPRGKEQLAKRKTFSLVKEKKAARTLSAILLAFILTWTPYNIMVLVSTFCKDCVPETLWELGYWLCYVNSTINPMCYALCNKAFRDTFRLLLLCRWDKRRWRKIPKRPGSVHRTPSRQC
Source text: (§1) The EC50 for an agonist is intended to denote the concentration of a compound needed to achieve 50% of a maximal response seen in an in vitro assay such as R-SAT. For inverse agonists, EC50 is intended to denote the concentration of a compound needed to achieve 50% inhibition of an R-SAT response from basal, no compound, levels.
(§2) A particularly convenient functional assay system is the receptor selection and amplification assay (R-SAT assay) in U.S. Pat. No. 5,707,798, which describes a method of screening for bioactive compounds by utilizing the ability of cells transfected with receptor DNA, e.g., coding for the different muscarinic subtypes, to amplify in the presence of a ligand of the receptor. Cell amplification is detected as increased levels of a marker also expressed by the cells.
(§3) Receptor Selection and Amplification (R-SAT) assays were carried out using the cloned M1-M5 receptors essentially as described in: Brauner-Osborne H, Brann M R. Pharmacology of muscarinic acetylcholine receptor subtypes (m1-m5): high throughput assays in mammalian cells. Eur J Pharmacol Jan. 4, 1996;295(1):93-102, and Spalding T A, Trotter C, Skjaerbaek N, Messier T L, Currier E A, Burstein E S, Li D, Hacksell U, Brann M R. Discovery of an ectopic activation site on the M(1) muscarinic receptor. Mol Pharmacol. 2002 June;61(6):1297-302.

[2] = target: T2, M2 muscarinic receptor (Homo sapiens, UniProt P08172); test: Receptor Selection and Amplification (R-SAT) assay, cloned M2 receptor; parameters: M2 Eff: scale not given here; conditions: for Emax: read-out: m2 % Efficacy
T2 construct: expressed in transfected cells
T2 sequence (P08172 1-466): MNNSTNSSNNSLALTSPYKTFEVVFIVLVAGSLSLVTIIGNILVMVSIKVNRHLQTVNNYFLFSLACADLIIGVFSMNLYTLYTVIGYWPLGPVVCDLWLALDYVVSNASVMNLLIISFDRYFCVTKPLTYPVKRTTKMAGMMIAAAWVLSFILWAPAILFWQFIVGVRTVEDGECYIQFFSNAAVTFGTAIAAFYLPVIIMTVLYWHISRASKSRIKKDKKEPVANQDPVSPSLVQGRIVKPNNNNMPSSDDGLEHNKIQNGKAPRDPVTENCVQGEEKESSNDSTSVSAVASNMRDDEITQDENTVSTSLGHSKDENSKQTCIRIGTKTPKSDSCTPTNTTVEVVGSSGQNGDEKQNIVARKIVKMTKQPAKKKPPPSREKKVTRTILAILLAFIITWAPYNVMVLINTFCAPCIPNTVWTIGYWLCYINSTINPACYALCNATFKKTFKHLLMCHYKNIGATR
Source text: as §1, §2, §3

[3] = target: T3, M3 muscarinic receptor (Homo sapiens, UniProt P20309); test: Receptor Selection and Amplification (R-SAT) assay, cloned M3 receptor; conditions: R-SAT, second table (COMPOUND ID series)
T3 construct: expressed in transfected cells
T3 sequence (P20309 whole entry): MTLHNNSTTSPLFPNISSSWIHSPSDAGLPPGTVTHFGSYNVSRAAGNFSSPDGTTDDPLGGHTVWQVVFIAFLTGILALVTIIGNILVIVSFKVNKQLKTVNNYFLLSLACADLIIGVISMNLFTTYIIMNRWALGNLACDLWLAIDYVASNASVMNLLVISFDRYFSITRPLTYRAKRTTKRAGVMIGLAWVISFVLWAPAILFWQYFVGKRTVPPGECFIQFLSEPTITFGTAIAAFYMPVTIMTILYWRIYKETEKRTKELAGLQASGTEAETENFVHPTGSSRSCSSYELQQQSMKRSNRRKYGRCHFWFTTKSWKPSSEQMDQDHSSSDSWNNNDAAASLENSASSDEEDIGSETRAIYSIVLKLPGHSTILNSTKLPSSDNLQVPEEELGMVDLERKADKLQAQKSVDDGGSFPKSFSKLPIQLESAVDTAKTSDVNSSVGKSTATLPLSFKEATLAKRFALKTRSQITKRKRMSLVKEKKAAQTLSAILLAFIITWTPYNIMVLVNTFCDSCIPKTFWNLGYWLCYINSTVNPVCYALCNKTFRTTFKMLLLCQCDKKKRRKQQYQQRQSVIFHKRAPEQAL
Source text: as §1, §2, §3

[4] = target: T4, M4 muscarinic receptor (Homo sapiens, UniProt P08173); test: Receptor Selection and Amplification (R-SAT) assay, cloned M4 receptor; conditions: for Emax: read-out: m4 % Efficacy
T4 construct: expressed in transfected cells
T4 sequence (P08173 1-479): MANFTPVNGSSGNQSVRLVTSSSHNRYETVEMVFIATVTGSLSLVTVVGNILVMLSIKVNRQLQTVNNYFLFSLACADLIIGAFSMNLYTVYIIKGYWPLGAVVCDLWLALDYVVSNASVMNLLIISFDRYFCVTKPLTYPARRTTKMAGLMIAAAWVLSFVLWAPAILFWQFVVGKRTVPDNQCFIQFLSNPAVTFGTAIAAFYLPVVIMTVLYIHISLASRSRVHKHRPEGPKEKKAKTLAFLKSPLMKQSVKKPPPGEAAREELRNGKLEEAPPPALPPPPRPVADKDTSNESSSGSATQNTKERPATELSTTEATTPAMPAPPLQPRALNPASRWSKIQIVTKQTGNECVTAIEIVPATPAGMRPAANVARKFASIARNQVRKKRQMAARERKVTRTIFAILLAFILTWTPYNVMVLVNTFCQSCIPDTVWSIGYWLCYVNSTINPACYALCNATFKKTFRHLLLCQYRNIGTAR
Source text: as §1, §2, §3

[5] = R-SAT, second table (COMPOUND ID series)
[6] = R-SAT, second table (COMPOUND ID series), read-out: M1 pEC50 (converted)
[7] = R-SAT, second table (COMPOUND ID series), read-out: M2 pEC50 (converted)
[8] = R-SAT, cloned m1 receptor, read-out: m1 pEC50 (converted)
[9] = R-SAT, cloned m2 receptor, read-out: m2 pEC50 (converted)
[10] = R-SAT, cloned m4 receptor, read-out: m4 pEC50 (converted)
[11] = m1 pEC50, R-SAT, cloned m1 receptor
[12] = m2 pEC50, R-SAT, cloned m2 receptor

SMILES	Emax ([1]; R-SAT, cloned m1 receptor) [%]	EC50 [1, 8] [µM]	Emax ([2]; R-SAT, cloned m2 receptor) [%]	EC50 [2, 9] [µM]	Emax ([4]; R-SAT, cloned m4 receptor) [%]	EC50 [4, 10] [µM]	other results
CC(CN1CCC(OCC2CC2)CC1)CN1C(=O)COc2ccccc21 (racemic) [Compound 00262273, (R,S)-4-[3-(4-Cyclopropylmethoxypiperidin-1-yl)-2-methylpropyl]-4H-benzo[1,4]oxazin-3-one]	–	–	–	–	–	–	M1 Eff [1, 5]: 155; EC50 [1, 6]: 0.0251 µM; M2 Eff [2, 5]: 98; EC50 [2, 7]: 0.794 µM; M3 Eff [3]: 35; EC50 ([3]; read-out: M3 pEC50 (converted)): 1.58 µM
CCCCC1CCN(CCCN2CCCc3ccccc32)CC1 [Compound 55-LH-12-2, 1-[3-(4-Butyl-piperidin-1-yl)-propyl]-1,2,3,4-tetrahydro-quinoline]	72	0.0501	35	0.631	68	1	–
CCCCC1CCN(CCCN2CCCc3cc(C)ccc32)CC1 [Compound 55LH44-A, 1-[3-(4-Butyl-piperidin-1-yl)-propyl]-6-methyl-1,2,3,4-tetrahydro-quinoline]	54	0.316	–	–	28	> 3.16	–
CCCCC1CCN(CCCN2CCOc3ccc(C)cc32)CC1 [Compound 64LHY91-6, 4-[3-(4-Butyl-piperidin-1-yl)-propyl]-6-methyl-3,4-dihydro-2H-benzo[1,4]oxazine]	86	0.0631	31	0.126	52	0.251	–
CCCCCC1CC2CCC(C1)N2C[C@@H](C)CN1C(=O)COc2ccccc21 (stereo partly drawn) [Compound 108LM39-36, (R)-4-[2-Methyl-3-(3-pentyl-8-azabicyclo[3.2.1]oct-8-yl)propyl]-4H-benzo[1,4]oxazin-3-one]	–	–	–	–	–	–	EC50 [1, 11]: 0.00158 µM; Emax [1]: 106%; EC50 [2, 12]: 0.00794 µM; Emax [2]: 37%; EC50 [4]: 0.02 µM; Emax [4]: 71%
CCCCC1CCN(CCCN2c3ccccc3CCC2C)CC1 (centres unmarked) [Compound 55-LH-28-8, 1-[3-(4-Butyl-piperidin-1-yl)-propyl]-2-methyl-1,2,3,4-tetrahydro-quinoline]	45	0.2	67	> 3.16	64	> 3.16	–
C[C@@H](CN1C(=O)COc2ccccc21)CN1[C@@H]2CC[C@H]1CC(=NOCC1CC1)C2 (mixture of isomers) [Compound 00261537, 4-[3-(3-Cyclopropylmethoxyimino-8-aza-bicyclo[3.2.1]oct-8-yl)-2(R)-methyl-propyl]-4H-benzo[1,4]oxazin-3-one]	–	–	–	–	–	–	M1 Eff [1, 5]: 126; EC50 [1, 6]: 0.126 µM; M2 Eff [2, 5]: 58; EC50 [2, 7]: 0.794 µM
CCCCCC1CC2CCC(C1)N2C[C@@H](C)CN1C(=O)CCc2ccccc21 (stereo partly drawn) [Compound 107LH55, (R)-1-[2-Methyl-3-(3-pentyl-8-azabicyclo[3.2.1]oct-8-yl)propyl]-3,4-dihydro-1H-quinolin-2-one]	–	–	–	–	–	–	EC50 [1, 11]: 0.00126 µM; Emax [1]: 103%; EC50 [2, 12]: 0.0316 µM; Emax [2]: 28%; EC50 [4]: 0.0501 µM; Emax [4]: 54%
